# In BindingDB's records for patent US12115157 (Boehringer Ingelheim International, 2024):
# Biological target: G-protein coupled receptor 52 (Homo sapiens, UniProt Q9Y2T5)
# Experiment: Homogeneous Time-Resolved Fluorescence (HTRF) Assay
# Description: HTRF cAMP assays were performed using commercially available assay kits according to the manufacturer's instructions (cAMP Dynamic 2 Assay Kit; #62AM4PEJ, Cisbio Bioassays, Bedford, MA). An aliquot of CHO-K1 cells stably expressing recombinant human GPR52 was thawed and resuspended in cell buffer (1×PBS (w/o Ca2+/Mg2+)) at a density of 4×10^5 cells per mL. Test compounds were solubilized in DMSO to 10 mM stock solutions and serially diluted in DMSO using 6-fold dilutions to generate 8-point dose response curves. These serially diluted samples were then diluted 1:50 in compound dilution buffer (1×PBS (w/o Ca2+/Mg2+) containing 0.5 mM IBMX, 0.1% BSA) to achieve a 4× stock. The diluted compounds were transferred (5 μL per well) in duplicate to the 384-well assay plate (Optiplate #6007290, PerkinElmer, Waltham, MA). Both a positive (reference compound) and negative (non-stimulated vehicle) control was included in each assay run in column 23. The cell suspension was subsequently dispensed into the 384-well assay plates at 15 μL per well (6000 cells) such that the compound was diluted to 1×. […] After a one-hour incubation at room temperature, 10 μL of cAMP D2 reagent followed by 10 μL of cryptate reagent (provided in the Cisbio kit) was added to each well. Plates were then incubated at room temperature for one hour prior to reading. Time-resolved fluorescence measurements were collected on an EnVision HTRF plate reader (PerkinElmer, Waltham, MA).
# Chain of G-protein coupled receptor 52 (Q9Y2T5 whole entry): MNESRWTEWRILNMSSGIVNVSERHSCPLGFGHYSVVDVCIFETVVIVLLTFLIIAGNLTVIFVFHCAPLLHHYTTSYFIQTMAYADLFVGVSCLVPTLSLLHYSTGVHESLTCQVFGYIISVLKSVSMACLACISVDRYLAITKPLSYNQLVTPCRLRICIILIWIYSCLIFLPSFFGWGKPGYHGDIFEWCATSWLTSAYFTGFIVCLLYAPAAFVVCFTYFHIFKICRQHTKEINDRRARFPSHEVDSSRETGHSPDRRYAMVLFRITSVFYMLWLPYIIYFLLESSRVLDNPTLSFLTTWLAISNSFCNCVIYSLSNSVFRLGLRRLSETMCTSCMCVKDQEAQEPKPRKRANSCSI
row,SMILES,EC50 [nM]
1,"CC(=O)N1C[C@H](NC(=O)c2nccnc2N2CC(Oc3ccc(F)c(F)c3)C2)C(F)(F)C1 [US12115157, Ex. 8b]",7
2,"CC(=O)N1C[C@@H](NC(=O)c2nsnc2N2CC(Oc3ccc(F)c(F)c3)C2)C(F)(F)C1 [US12115157, Ex. 13a]",595
3,"CC(=O)N1C[C@H](NC(=O)c2nccnc2N2CC(Oc3cc(F)c(F)c(F)c3)C2)C(F)(F)C1 [US12115157, Ex. 11b]",10
4,"CC(=O)N1C[C@H](NC(=O)c2nsnc2N2CC(Oc3ccc(F)c(F)c3)C2)C(F)(F)C1 [US12115157, Ex. 13b]",3
5,"CC(=O)N1C[C@@H](NC(=O)c2nccnc2N2CC(Oc3ccc(F)c(F)c3)C2)C(F)(F)C1 [US12115157, Ex. 8a]",1090
6,"CC(=O)N1C[C@@H](NC(=O)c2nccnc2N2CC(Oc3cc(F)c(F)c(F)c3)C2)C(F)(F)C1 [US12115157, Ex. 11a]",1280
